Measurements: patent US20190388411A1, “NSAID ADMINISTRATION AND RELATED COMPOSITIONS, METHODS AND SYSTEMS” (Alfasigma S.p.A., priority 2013, published 2019)

Columns and labels:
Assay type in all cases: in vivo, male Albino Sprague Dawley rats
[1] = Mortality in indomethacin-induced enteropathy in rats (Example 16); conditions: indomethacin […] BID + rifaximin product 50 mg/kg BID, 14 days
Procedure: A percentage of 100% of survivors was also recorded in vehicle control group (Group 1).

[2] = Blood hemoglobin levels in indomethacin-induced enteropathy in rats (Example 16)
Procedure: Twenty four hours after the last dose, the rats were euthanized and samples of blood were collected for the assessment of hemoglobin levels.
Hemoglobin analysis was performed on rat blood samples collected as reported above, by means of Quantichrom Hemoglobin assay kit (Bioassay Systems, Hayward, Calif., USA) and expressed as g/dL.

myeloperoxidase (MPO) = assay: Tissue myeloperoxidase (MPO) levels in jejunum and ileum, ELISA (Example 16)
Procedure: (§1) The whole intestinal tract was removed and processed for the evaluation of tissue myeloperoxidase (MPO) levels and histological analysis of intestinal damage in jejunum and ileum.
Specimens of intestinal tissues (30 mg) were homogenized on ice with a polytron homogenizer (QIAGEN, Milan, Italy) in 0.6 mL of ice-cold lysis buffer (200 mM NaCl, 5 mM EDTA, 10 mM Tris, 10% glycerine, 1 mM PMSF, 1 μg/ml leupeptin and 28 μg/ml aprotinin (pH 7.4). The homogenate was centrifuged 2 times at 4° C. for 15 min at 1.500 g. The supernatant was diluted 1:5 and used for determination of MPO concentration by means of enzyme-linked immunosorbent assay (ELISA) (Hycult Biotech, Uden, Netherlands). All samples were assayed within 2 day after collection. The results were expressed as nanograms of MPO per milligram of intestinal tissue.

[3] = tested on: indomethacin - induced microscopic intestinal damage; assay: Histological analysis of intestinal damage in jejunum and ileum (Example 16); conditions: rats
Procedure: as §1
Pharmacol. Ther. 1993; 7:29-39. Upon removal, the whole intestinal tract was immediately injected with 10% formalin and left in the same fixative solution. After 30 min, it was opened along the anti-mesenteric border, cleaned of fecal content and fixed in 10% formalin for 24 h. Tissue samples were taken as described below and the full length of small intestine was measured.
In particular the following tissue samples were taken • Ileum: 1 cm of tissue proximal to the ileo-cecal valve was discarded and two specimens of 1.5-2 cm of ileum were taken at this edge as well as 5 cm away from the first ileum sample • Proximal jejunum: two specimens of 1.5-2 cm were taken 5 cm away from both the proximal and distal end of the 37.5% of the small intestine total length. • Distal jejunum: two specimens of 1.5-2 cm were taken 5 cm away from both the proximal and distal end of 81% of small intestine's total length.
After fixation, tissues were embedded into paraffin blocks and were cut into consecutive serial 3-μm sections for staining with hematoxylin and eosin. Histological damage was assessed by two observers, blind to the treatment. Each section was given a score of lesion (Type 1 to 3) (TABLE 23).
Quantitative assessment of histological damage was expressed as percentage of the total length of lesions over the total length of the histological section.

[4] = rats, indomethacin […] BID 14 days, alone or with gastroresistant rifaximin 25 or 50 mg/kg BID or rifaximin polymorph alpha 50 mg/kg BID
[5] = indomethacin […] BID 14 days, alone or with gastroresistant rifaximin 25 and 50 mg/kg BID or rifaximin polymorph alpha 50 mg/kg BID

Structure (SMILES) | Mortality (%) [1] | Blood hemoglobin concentration (in words) ([2]; indomethacin […] BID 14 days, alone or with gastroresistant rifaximin at both doses or rifaximin polymorph alpha 50 mg/kg BID) | Reduction of MPO levels in respect to animals which did not receive rifaximin (myeloperoxidase (MPO); rats treated with indomethacin, 14 days) | Ileum tissue MPO levels (in words) (myeloperoxidase (MPO); [4]) | Jejunum tissue MPO levels (in words) (myeloperoxidase (MPO); [4]) | Ileum type 1 lesions, microscopic assessment (in words) [3, 5] | Ileum type 2 lesions, microscopic assessment (in words) [3, 5] | Jejunum type 1 lesions, microscopic assessment (in words) [3, 5] | Lesions / histological damage in ileum and jejunum, overall (in words) ([3]; with indomethacin […] BID 14 days, gastroresistant rifaximin 25 and 50 mg/kg BID, rifaximin polymorph alpha 50 mg/kg BID) | Reduction in hemoglobin values ([2]; end of the treatment period (14 days), in respect to the control) [%] | Jejunum type 2 lesions, microscopic assessment (in words) [3, 5]
CO[C@H]1/C=C/O[C@@]2(C)Oc3c(C)c(O)c4c(O)c(c5c(nc6cc(C)ccn65)c4c3C2=O)NC(=O)/C(C)=C\C=C\[C@H](C)[C@H](O)[C@@H](C)[C@@H](O)[C@@H](C)[C@H](OC(C)=O)[C@@H]1C [rifaximin polymorph alpha, rifaximin] | not associated with deaths | these levels were decreased | about 22% | blunted | did not exert any relevant effect | significant reduction of Type 1 lesions | no significant differences were appreciated on the occurrence of type 2 lesions | reduced the degree of type 1 lesions, although mean values were not significantly different | effective in the reduction of lesions | – | –
CO[C@H]1/C=C/O[C@@]2(C)Oc3c(C)c(O)c4c(O)c(c5c(nc6cc(C)ccn65)c4c3C2=O)NC(=O)/C(C)=C\C=C\[C@H](C)[C@H](O)[C@@H](C)[C@@H](O)[C@@H](C)[C@H](OC(C)=O)[C@@H]1C [rifaximin, (2S, 16Z, 18E, 20S, 21S, 22R, 23R, 24R, 25S, 26S, 27S, 28E)-5,6, 21, 23, 25 pentahydroxy-27-methoxy-2,4, 11, 16, 20, 22, 24, 26-octamethyl-2,7-(epoxypentadeca-(1,11,13)trienimino) benzofuro (4,5-e) pyrido (1,2,-a benzimidazole-1,15(2H)dione, 25-acetate)] | do not displayed death | – | – | – | – | – | – | – | – | 12 | significantly reduced Type 2 lesions
